Measured values as given in the NIST ThermoML archive (doi:10.1021/acs.jced.8b00157).
Several values for one entry are separate records, joined by “and”; a condition that tells them apart may be missing. Equal values may be shown once. Numbers after ± are expanded uncertainties.

Assay: an = ratio of the nth substance listed
Details: 100 kPa, Liquid, Buoyancy - hydrostatic balance

[F][Al]([F])[F] [aluminum fluoride] + [F-].[K+]
mass density
Details	a2 = 1.3	a2 = 1.5
1039.4 K	1799 ± 12 kg/m3	–
1039.6 K	1795 ± 11 kg/m3	–
1039.8 K	1795 ± 10 kg/m3	–
1039.9 K	1798 ± 11 kg/m3	–
1040.1 K	1795 ± 12 kg/m3	–
1040.4 K	1795 ± 11 kg/m3	–
1040.6 K	1798 ± 11 kg/m3 and 1795 ± 11 kg/m3	–
1040.8 K	1798 ± 11 kg/m3	–
1040.9 K	1797 ± 11 kg/m3	–
1041 K	1796 ± 11 kg/m3 and 1797 ± 10 kg/m3	–
1041.2 K	1795 ± 10 kg/m3	–
1042.1 K	1796 ± 11 kg/m3	–
1042.3 K	1794 ± 11 kg/m3	–
1042.5 K	1796 ± 11 kg/m3	–
1042.8 K	1793 ± 10 kg/m3 and 1794 ± 10 kg/m3	–
1042.9 K	1792 ± 10 kg/m3 and 1794 ± 10 kg/m3	–
1043 K	1793 ± 10 kg/m3	–
1043.1 K	1795 ± 11 kg/m3	–
1043.4 K	1795 ± 11 kg/m3	–
1043.7 K	1795 ± 10 kg/m3	–
1043.8 K	1794 ± 10 kg/m3	–
1043.9 K	1794 ± 10 kg/m3 and 1791 ± 10 kg/m3	–
1044.3 K	1791 ± 11 kg/m3	–
1044.4 K	1791 ± 10 kg/m3	–
1045 K	1793 ± 11 kg/m3	–
1045.3 K	1793 ± 11 kg/m3 and 1790 ± 10 kg/m3	–
1045.4 K	1789 ± 12 kg/m3	–
1045.6 K	1792 ± 10 kg/m3	–
1045.8 K	1793 ± 11 kg/m3	–
1046.1 K	1793 ± 12 kg/m3	–
1046.3 K	1789 ± 10 kg/m3	–
1046.5 K	1789 ± 10 kg/m3	–
1046.7 K	1792 ± 11 kg/m3 and 1789 ± 11 kg/m3	–
1046.9 K	1789 ± 12 kg/m3	–
1047 K	1789 ± 11 kg/m3	–
1047.3 K	1792 ± 10 kg/m3	–
1047.4 K	1791 ± 10 kg/m3	–
1047.6 K	1791 ± 10 kg/m3	–
1048 K	1791 ± 10 kg/m3	–
1048.1 K	1788 ± 10 kg/m3	–
1048.4 K	1786 ± 10 kg/m3	–
1048.6 K	1790 ± 11 kg/m3 and 1786 ± 11 kg/m3	–
1048.8 K	1788 ± 11 kg/m3	–
1049.4 K	1789 ± 10 kg/m3	–
1049.5 K	1789 ± 11 kg/m3	–
1049.6 K	1786 ± 11 kg/m3	–
1049.7 K	1785 ± 10 kg/m3	–
1049.9 K	1789 ± 10 kg/m3	–
1050.5 K	1788 ± 10 kg/m3 and 1785 ± 10 kg/m3	–
1050.6 K	1784 ± 10 kg/m3	–
1051.2 K	1787 ± 11 kg/m3	–
1051.3 K	1787 ± 10 kg/m3	–
1051.5 K	1787 ± 10 kg/m3 and 1783 ± 10 kg/m3 and 1784 ± 10 kg/m3	–
1051.6 K	1787 ± 10 kg/m3 and 1782 ± 10 kg/m3	–
1052 K	1783 ± 11 kg/m3	–
1052.2 K	1786 ± 11 kg/m3 and 1782 ± 11 kg/m3	–
1052.7 K	1786 ± 10 kg/m3	–
1053.2 K	1782 ± 10 kg/m3	–
1053.4 K	1786 ± 11 kg/m3	–
1053.5 K	1786 ± 11 kg/m3	–
1053.7 K	1786 ± 11 kg/m3	–
1053.9 K	1782 ± 11 kg/m3	–
1054.4 K	1785 ± 10 kg/m3	–
1054.7 K	1784 ± 10 kg/m3	–
1055.3 K	1784 ± 10 kg/m3	–
1055.6 K	1784 ± 10 kg/m3	–
1056 K	1784 ± 11 kg/m3	–
1056.1 K	1783 ± 11 kg/m3	–
1056.3 K	1783 ± 11 kg/m3	–
1056.4 K	1783 ± 11 kg/m3	–
1057.3 K	1782 ± 10 kg/m3	–
1057.7 K	1782 ± 10 kg/m3	–
1057.9 K	1781 ± 10 kg/m3	–
1058.1 K	1781 ± 10 kg/m3	–
1059.2 K	1781 ± 10 kg/m3	–
1059.3 K	1780 ± 10 kg/m3	–
1059.5 K	1780 ± 11 kg/m3	–
1060.2 K	1779 ± 10 kg/m3 and 1780 ± 10 kg/m3	–
1060.5 K	–	1796 ± 10 kg/m3
1060.8 K	–	1796 ± 10 kg/m3
1061.1 K	1778 ± 10 kg/m3	1796 ± 10 kg/m3
1061.2 K	1779 ± 11 kg/m3	–
1061.3 K	1778 ± 11 kg/m3	–
1061.5 K	1779 ± 11 kg/m3	–
1061.6 K	1777 ± 11 kg/m3	1796 ± 10 kg/m3
1061.9 K	–	1795 ± 10 kg/m3
1062.2 K	–	1795 ± 10 kg/m3
1062.5 K	–	1795 ± 10 kg/m3
1062.8 K	1777 ± 10 kg/m3	–
1062.9 K	–	1795 ± 10 kg/m3
1063.2 K	1776 ± 10 kg/m3 and 1777 ± 10 kg/m3	–
1063.3 K	–	1794 ± 10 kg/m3
1063.6 K	–	1794 ± 10 kg/m3
1063.7 K	1776 ± 10 kg/m3	–
1064.1 K	1775 ± 10 kg/m3	1794 ± 10 kg/m3
1064.4 K	–	1794 ± 11 kg/m3
1064.6 K	1775 ± 10 kg/m3	–
1064.7 K	–	1793 ± 10 kg/m3
1065.2 K	–	1793 ± 10 kg/m3
1065.3 K	1775 ± 11 kg/m3	–
1065.5 K	–	1792 ± 10 kg/m3
1065.8 K	1774 ± 10 kg/m3	–
1066 K	1774 ± 11 kg/m3	1792 ± 10 kg/m3
1066.3 K	1775 ± 10 kg/m3	–
1066.4 K	–	1792 ± 10 kg/m3
1066.7 K	–	1792 ± 10 kg/m3
1066.9 K	1774 ± 10 kg/m3	–
1067 K	1773 ± 10 kg/m3	–
1067.2 K	1773 ± 10 kg/m3	1791 ± 10 kg/m3
1067.4 K	–	1791 ± 10 kg/m3
1067.7 K	1772 ± 10 kg/m3	–
1067.9 K	–	1791 ± 10 kg/m3
1068.2 K	–	1790 ± 10 kg/m3
